Assay results published in PMC3223389 (Frontiers in Pharmacology, 2011).

Target: T1, P2X2/3 receptors (Homo sapiens, UniProt P56373+Q9UBL9)
T1 sequence (Q9UBL9 1-471): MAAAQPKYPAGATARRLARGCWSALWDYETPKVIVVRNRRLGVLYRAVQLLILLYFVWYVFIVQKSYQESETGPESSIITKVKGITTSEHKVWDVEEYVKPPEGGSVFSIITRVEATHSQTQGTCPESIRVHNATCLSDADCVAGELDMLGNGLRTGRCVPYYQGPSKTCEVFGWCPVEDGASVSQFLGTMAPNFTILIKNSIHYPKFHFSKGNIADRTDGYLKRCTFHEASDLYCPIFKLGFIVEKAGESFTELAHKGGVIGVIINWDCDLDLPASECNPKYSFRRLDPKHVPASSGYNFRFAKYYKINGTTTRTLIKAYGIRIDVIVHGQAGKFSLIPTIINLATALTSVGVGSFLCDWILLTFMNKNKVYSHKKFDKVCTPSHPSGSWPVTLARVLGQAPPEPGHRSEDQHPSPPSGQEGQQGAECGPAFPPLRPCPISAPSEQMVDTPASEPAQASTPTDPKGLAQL
T1 sequence (P56373 1-397): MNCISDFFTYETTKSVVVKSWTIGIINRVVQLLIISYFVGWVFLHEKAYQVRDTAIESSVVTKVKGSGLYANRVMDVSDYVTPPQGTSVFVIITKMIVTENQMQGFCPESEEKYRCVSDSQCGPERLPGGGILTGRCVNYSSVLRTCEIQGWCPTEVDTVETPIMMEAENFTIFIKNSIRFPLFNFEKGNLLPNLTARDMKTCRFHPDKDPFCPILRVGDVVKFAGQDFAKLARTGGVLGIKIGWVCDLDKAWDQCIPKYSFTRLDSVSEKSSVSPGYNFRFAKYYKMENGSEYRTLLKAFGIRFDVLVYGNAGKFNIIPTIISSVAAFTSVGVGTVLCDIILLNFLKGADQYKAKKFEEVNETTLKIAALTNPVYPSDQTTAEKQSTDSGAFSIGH
Assay: SyncroPatch 96 recording of P2X2/3 receptors in 1321N1 cells
Assay type: cell-based
Conditions: 10 μM, 1321N1 cell, three applications with intermittent wash steps

activation of P2X2/3 receptors: repeatedly activated
Structure (SMILES): Nc1ncnc2c1ncn2[C@@H]1O[C@H](COP(=O)(O)OP(=O)(O)OP(=O)(O)O)[C@@H](O)[C@H]1O [ATP]
